The subject of the experiment is Common fruit fly, Drosophila melanogaster. Nature of the experiment: Diet surface treatment bioassay against common fruit fly, population after one generation. Format: in vivo. As to conditions: single peptide 0.1 mg/ml; after 14 days (one generation). The method, then: A trap made up from a ripened banana was kept in an open, shady, and damp place to capture the flies. Captured flies were anaesthetized using about 5% Triethylamine (TAE) treatment for about 1 minute. Drosophila melanogaster files were identified, separated, and transferred to a flask containing diet made up of Corn flour: about […], Sugar: about 51 μm, Agar agar: about […], Yeast: about 17 μm, Methyl Paraben: about 4 μm, Propionic acid: about 4 ml, Distilled Water: about 1200 ml. Freshly emerged flies were transferred to separate bottle to synchronize the population. The population was maintained in a separate room at a temperature of about 25±2° C., RH of about 60-65% and was subjected to a 16:8 (light: dark) h photoperiod.
The insecticide stock solutions were prepared by dilution with phosphate buffered saline (PBS, pH 7.0) to achieve desire doses of test. Semi synthetic artificial diet surface treatment method was used to assess the efficacy of IPPs against […]. Diet was prepared as per the composition given above. 2 ml hot liquid diet poured in 25 ml glass vials (5 cm h and 1.5 cm diameter) and allowed to cool and solid. […] After 14 days precisely after one generation, insect stages, egg, larvae, pupa and adults were counted.

Experimental findings from patent US20260209275A1, “PEPTIDE(S), COMPOSITION(S) AND METHOD(S) HAVING BROAD SPECTRUM ACTIVITY AGAINST CROP INSECTS” (TELLURIS BIOTECH INDIA PRIVATE LIMITED, priority 2022, published 2026) are described below.

As to `CC[C@H](C)[C@H](NC(=O)[C@H](CCC(N)=O)NC(=O)[C@H](CCC(N)=O)NC(=O)[C@H](CCC(=O)O)NC(=O)[C@H](CCCCN)NC(=O)[C@H](CCC(N)=O)NC(=O)[C@H](CCC(=O)O)NC(=O)[C@H](C)NC(=O)[C@@H](N)CCSC)C(=O)N[C@@H](CC(C)C)C(=O)N[C@@H](CCCNC(=N)N)C(=O)N[C@@H](CC(C)C)C(=O)N[C@@H](CCCNC(=N)N)C(=O)N[C@@H](CCC(=O)O)C(=O)N[C@@H](CO)C(=O)N[C@@H](Cc1c[nH]cn1)C(=O)N[C@@H](Cc1c[nH]cn1)C(=O)N[C@@H](Cc1c[nH]cn1)C(=O)N[C@@H](Cc1c[nH]cn1)C(=O)N[C@@H](Cc1c[nH]cn1)C(=O)N[C@@H](Cc1c[nH]cn1)C(=O)O` [Seq. ID No. 3, MAEQKEQQILRLRES], the “Observed Response (Percent reduction of population over UTC) SEQ ID No. X / SEQ ID No. Y” value was found to be 37.79%.
